Data on 9 compounds can be found in PMC6949113, “Preclinical evaluation of AT-527, a novel guanosine nucleotide prodrug with potent, pan-genotypic activity against hepatitis C virus” (PLoS ONE, 2020).

For one data set, the system named is human iPS cardiomyocytes. Format: cell-based. The settings on record: 3 days. On the procedure:
Cardiomyocyte assay. […] Test or positive control compounds were then added in triplicate and the incubations continued for 3 days. Cell viability was measured by XTT and CellTiter Glo staining. For the latter method, the medium was removed from test plates, replaced with CellTiter Glo reagent in fresh medium before incubating at RT for 10 min. The well contents were transferred to a white 96-well plate and luminescence measured within 15 min on a Wallac 1450 Microbeta Trilux liquid scintillation counter.

Data set [1] concerns HCV NS5B replicons, laboratory strains. Kind of data set: PhenoSense HCV NS5B assay, laboratory strains. Format: cell-based, hepatitis C virus.
Data set [2] concerns HCV NS5B replicons from clinical isolates. Put plainly: PhenoSense HCV NS5B assay, clinical isolates. Format: cell-based, hepatitis C virus. The settings on record: for EC50: Hepatitis C virus.
The test system of data set [3] is HCV strains containing resistance-associated variants (RAVs). Kind of data set: PhenoSense HCV NS5B assay, resistance-associated variants. The class given is cell-based, hepatitis C virus. The settings on record: for EC50: Hepatitis C virus.
Another data set deals with Huh-luc/neo-ET cells. The settings on record: XTT. For orientation: Tetrazolium dyes change colour on reduction, which living cells bring about.
For a further data set, the system named is HCV GT1b replicon. Kind of data set: HCV GT1b replicon assay (Britelite luciferase reporter).
For another data set, the target named is T1, human DNA polymerase β (Homo sapiens, UniProt P06746).
T1 construct: purchased CHIMERx (Madison, WI)
Put plainly: Human DNA polymerase inhibition assay, β. The class given is biochemical. The method, then:
(§1) The polymerases were purchased from CHIMERx (Madison, WI). Inhibition of DNA polymerase α activity was assayed in microtiter plates in 20 mM Tris-HCl, pH 8, 5 mM Mg acetate, 0.3 mg/mL BSA, 1mM DTT, 0.1 mM spermine, 0.05 mM dCTP, dTTP and dATP, 10 μCi ^32P-α-dGTP (800 Ci/mmol), 20 μg activated calf thymus DNA and the test compound at indicated concentrations. The DNA polymerase β and γ reaction mixture contained 50 mM Tris-HCl, pH 8.7, KCl (10 mM for β and 100 mM for γ), 10 mM MgCl2, 0.4 mg/mL BSA, 1mM DTT, 15% glycerol, 0.05 mM dCTP, dTTP and dATP, 10 μCi ^32P-α-dGTP (800 Ci/mmol), 20 μg activated calf thymus DNA and test compound at the indicated concentrations. For each assay, samples were run in triplicate, and positive controls were included. The enzyme reactions were allowed to proceed for 30 min at 37 °C followed by transfer onto glass-fiber filter plates and subsequent precipitation with 10% trichloroacetic acid (TCA). Plates were washed five times with 5% TCA, once with 95% ethanol and dried. The radioactive content of each filter was measured and used to determine the extent of inhibition of each polymerase.

Another data set concerns RSV. Put plainly: Anti-RSV assay (XTT). The settings on record: RSV in HEp2 cells.
The test system of data set [4] is K562 cells. Kind of data set: K562 cytotoxicity (XTT, 3 days). The class given is cell-based, human. The method, then:
(§2) Mitochondrial toxicity assay. K562 leukemia cells (ATCC, CCL-243) seeded in 96-well plates (1x10^5 cells/well) were incubated in triplicate with test or positive control compounds in RPMI containing glucose, 10% FBS and 2 mM L-glutamine. […] Viability was compared with untreated cells to determine TC50 values. Separately, K562 cells were incubated in triplicate with test compounds in glucose-free RPMI supplemented with 10 mM galactose. Test compounds diluted in RPMI containing glucose were evaluated in parallel.

Data set [5] concerns K562 cells. Kind of data set: Mitochondrial toxicity assay (Mitochondrial ToxGlo, glucose/galactose). Format: cell-based, human. The method, then: as §2
Another data set has as its system PC3 cells. Put plainly: PC3 cytotoxicity (XTT, 5 days). The class given is cell-based, human. The method, then:
(§3) Mitobiogenesis toxicity assay. […] One plate was used to measure cell viability by XTT staining. Cells in the remaining two plates were fixed with 4% paraformaldehyde for 20 min, washed thrice with DPBS, and 0.5% acetic acid added for 5 min to block endogenous alkaline phosphatase activity. Nuclear DNA encoded Complex II SDH-A mitochondrial protein and mitochondrial encoded Complex IV COX-1 protein were measured spectrophotometrically using the Abcam Mitobiogenesis ELISA kit (Cambridge, UK) per the manufacturer’s instructions.

Data set [6] has as its system SDH-A protein in PC3 cells. Put plainly: Mitobiogenesis toxicity assay, SDH-A. The class given is cell-based, human. The settings on record: 5 days, read-out: Mitogenesis IC50 SDH-A. On the procedure: as §3
In data set [7] the test system is COX-1 protein in PC3 cells. Kind of data set: Mitobiogenesis toxicity assay, COX-1. The class given is cell-based, human. The settings on record: 5 days, read-out: Mitogenesis IC50 COX-1. On the procedure: as §3
Data set [8] concerns the target human mitochondrial RNA polymerase (POLRMT) (Homo sapiens, UniProt O00411). The settings on record: nucleotide controls; cited from earlier work.
The target in a further data set is T2, human DNA polymerase γ (Homo sapiens, UniProt P54098).
T2 construct: purchased CHIMERx (Madison, WI)
Put plainly: Human DNA polymerase inhibition assay, γ. The class given is biochemical. On the procedure:
as §1

[9] abbreviates: individual assays, AT-511 batches 1-6, SOF in parallel.

“And” between values parts separate entries of the source, which are not always exact repeats. Equal values may be shown once. Read-outs that look alike come from different tables or passages of the source. Where only a bound is given, the exact number is not on record here.

Sequence of human mitochondrial RNA polymerase (POLRMT) (O00411 42-1230): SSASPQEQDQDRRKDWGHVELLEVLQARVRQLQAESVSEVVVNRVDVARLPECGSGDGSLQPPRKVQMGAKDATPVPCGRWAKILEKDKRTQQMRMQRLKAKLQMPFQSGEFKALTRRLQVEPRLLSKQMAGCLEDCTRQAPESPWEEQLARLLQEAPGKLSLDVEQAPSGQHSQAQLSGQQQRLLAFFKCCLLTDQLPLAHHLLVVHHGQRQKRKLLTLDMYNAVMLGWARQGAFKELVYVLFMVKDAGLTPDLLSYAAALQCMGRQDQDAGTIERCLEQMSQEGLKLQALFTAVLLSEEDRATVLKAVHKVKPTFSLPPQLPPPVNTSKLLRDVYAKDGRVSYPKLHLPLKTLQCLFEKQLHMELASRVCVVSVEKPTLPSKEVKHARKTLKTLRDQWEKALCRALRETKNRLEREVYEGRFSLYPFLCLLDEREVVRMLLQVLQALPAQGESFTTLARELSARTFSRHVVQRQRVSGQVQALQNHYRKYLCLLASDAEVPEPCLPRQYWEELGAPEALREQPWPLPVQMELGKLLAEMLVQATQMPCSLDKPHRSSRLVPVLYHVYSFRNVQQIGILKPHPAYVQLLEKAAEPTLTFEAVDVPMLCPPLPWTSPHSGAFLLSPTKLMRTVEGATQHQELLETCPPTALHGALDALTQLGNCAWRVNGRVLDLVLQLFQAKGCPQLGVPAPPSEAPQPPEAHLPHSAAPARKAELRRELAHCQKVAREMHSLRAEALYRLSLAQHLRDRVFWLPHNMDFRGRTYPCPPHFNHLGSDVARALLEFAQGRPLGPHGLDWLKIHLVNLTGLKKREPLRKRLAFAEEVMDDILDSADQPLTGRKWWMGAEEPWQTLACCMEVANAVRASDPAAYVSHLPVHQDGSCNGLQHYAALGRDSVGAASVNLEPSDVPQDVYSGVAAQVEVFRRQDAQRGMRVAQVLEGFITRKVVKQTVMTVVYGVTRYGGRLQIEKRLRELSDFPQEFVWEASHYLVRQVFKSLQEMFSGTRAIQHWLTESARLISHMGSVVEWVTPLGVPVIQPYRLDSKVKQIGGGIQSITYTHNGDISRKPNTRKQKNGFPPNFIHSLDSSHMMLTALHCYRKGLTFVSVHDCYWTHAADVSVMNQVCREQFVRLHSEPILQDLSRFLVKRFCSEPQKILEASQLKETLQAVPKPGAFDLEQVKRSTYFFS
T2 sequence (P54098 whole entry): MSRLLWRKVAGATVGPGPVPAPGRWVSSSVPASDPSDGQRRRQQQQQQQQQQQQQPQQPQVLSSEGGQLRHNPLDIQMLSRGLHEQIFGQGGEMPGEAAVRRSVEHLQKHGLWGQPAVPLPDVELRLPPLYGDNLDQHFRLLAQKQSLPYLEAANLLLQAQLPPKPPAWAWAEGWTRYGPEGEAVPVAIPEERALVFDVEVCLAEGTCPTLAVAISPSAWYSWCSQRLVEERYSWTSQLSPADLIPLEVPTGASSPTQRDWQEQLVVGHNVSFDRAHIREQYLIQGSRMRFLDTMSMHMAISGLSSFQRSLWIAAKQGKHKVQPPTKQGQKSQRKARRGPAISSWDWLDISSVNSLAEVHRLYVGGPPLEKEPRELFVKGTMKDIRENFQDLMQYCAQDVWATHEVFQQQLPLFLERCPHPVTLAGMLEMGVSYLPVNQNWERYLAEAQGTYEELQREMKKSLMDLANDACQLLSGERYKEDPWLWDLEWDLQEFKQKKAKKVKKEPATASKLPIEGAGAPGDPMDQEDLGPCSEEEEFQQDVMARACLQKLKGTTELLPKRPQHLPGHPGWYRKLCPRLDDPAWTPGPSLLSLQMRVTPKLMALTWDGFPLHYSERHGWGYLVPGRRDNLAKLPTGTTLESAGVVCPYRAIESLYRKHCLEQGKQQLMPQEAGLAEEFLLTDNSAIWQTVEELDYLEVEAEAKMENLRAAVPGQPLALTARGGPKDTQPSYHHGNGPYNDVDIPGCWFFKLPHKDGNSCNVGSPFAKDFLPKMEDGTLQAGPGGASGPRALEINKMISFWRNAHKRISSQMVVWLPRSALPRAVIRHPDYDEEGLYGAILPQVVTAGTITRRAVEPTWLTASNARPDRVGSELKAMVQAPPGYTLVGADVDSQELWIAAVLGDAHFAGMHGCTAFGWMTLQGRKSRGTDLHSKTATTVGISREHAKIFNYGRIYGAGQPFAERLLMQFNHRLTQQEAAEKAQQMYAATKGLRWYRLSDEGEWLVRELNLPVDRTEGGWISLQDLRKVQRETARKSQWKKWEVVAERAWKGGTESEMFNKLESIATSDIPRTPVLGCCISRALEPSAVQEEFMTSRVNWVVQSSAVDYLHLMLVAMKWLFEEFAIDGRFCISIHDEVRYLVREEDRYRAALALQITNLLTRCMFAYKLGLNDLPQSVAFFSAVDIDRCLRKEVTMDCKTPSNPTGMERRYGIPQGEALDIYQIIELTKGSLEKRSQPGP

Compound `COc1cc2nc(N3CCN(C(=O)C4COc5ccccc5O4)CC3)nc(N)c2cc1OC` (centres unmarked) [doxazosin] displayed a TC50 with human iPS cardiomyocytes of 18 µM.
Usually EC95 stands for the point of the concentration-response curve where the effect stands at 95%. Lower therefore signals greater potency. A word on the EC50: it is the concentration needed to bring the measured effect to its halfway point. Consider `CC(C)OC(=O)[C@H](C)N[P@](=O)(OC[C@H]1O[C@@H](n2ccc(=O)[nH]c2=O)[C@](C)(F)[C@@H]1O)Oc1ccccc1` [SOF, sofosbuvir], for which the EC95 in data set [1] (GT1a H77) is 0.719 µM; in data set [1] (GT1b Con-1), 0.545 µM; in [1] (GT3a S52), 0.7 µM; in data set [2] (clinical isolate GT1a), 0.508 µM; in data set [2] (clinical isolate GT1b) it was 0.642 µM; in data set [2] (clinical isolate GT2a), 0.195 µM. Also, the EC95 in data set [2] (clinical isolate GT2b) stood at 0.295 µM; in data set [2] (clinical isolate GT3a-1), 0.69 µM; in [2] (clinical isolate GT3a-2), 0.808 µM; in data set [2] (clinical isolate GT4a), 0.681 µM; in data set [2] (clinical isolate GT4d) it was 1.02 µM; in [3] (GT1a 2_C316N), 0.473 µM. The EC95 in data set [3] (GT1a 2c1_L159F) turned out to be 1.068 µM; in data set [3] (GT1a 2c2_L159F_S282T), 16.95 µM; in data set [3] (GT1a H77_C316N) it was 0.469 µM; in data set [3] (GT1a H77_S282T), 7.23 µM; in data set [3] (GT1b Con-1_L159F), 0.715 µM; in data set [3] (GT1b Con-1_S282T), 7.23 µM. Moreover, the EC95 in data set [3] (GT2b 2_L159F) is 0.539 µM; in the data set on HCV GT1b replicon (setting [9]), 0.36 µM and 0.231 µM and 0.387 µM and 0.197 µM and 0.247 µM and 0.198 µM and 0.275 µM and 0.263 µM. Also, the EC50 in data set [1] (GT1b Con-1 (control reference)) amounted to 0.0894 µM; in [1] (Hepatitis C virus, GT1A, GT1a H77) it was 0.0834 µM; in data set [1] (Hepatitis C virus, GT1B, GT1b Con-1 (control reference)) it was 0.089 µM; in [1] (Hepatitis C virus, GT2A, GT2a JFH-1), 0.0507 µM; in data set [1] (Hepatitis C virus, GT3A, GT3a S52), 0.117 µM; in data set [1] (Hepatitis C virus, GT4A, GT4a ED43), 0.158 µM. In addition, the EC50 in data set [1] (Hepatitis C virus, GT5A, GT5a SA13) is 0.287 µM; in [1] (Hepatitis C virus, read-out: range in EC50 values across genotypes, panel of six laboratory strains), 0.051 to 0.287 µM; in data set [2] (GT1A, clinical isolate GT1a), 0.0627 µM; in data set [2] (GT1B, clinical isolate GT1b), 0.086 µM; in data set [2] (GT2A, clinical isolate GT2a), 0.0225 µM; in data set [2] (GT2B, clinical isolate GT2b), 0.0448 µM. Also, the EC50 was 0.126 µM in data set [2] (GT3A, clinical isolate GT3a-1); 0.123 µM in data set [2] (GT3A, clinical isolate GT3a-2); 0.0749 µM in data set [2] (GT4A, clinical isolate GT4a); 0.0937 µM in data set [2] (clinical isolate GT4d); 0.023 to 0.126 µM in [2] (read-out: range in EC50 values, eight clinical-isolate replicons); 0.0739 µM in data set [3] (GT1A, GT1a 2_C316N). The EC50 came out at 0.115 µM in [3] (GT1A, GT1a 2c1_L159F); 1.62 µM in data set [3] (GT1A, GT1a 2c2_L159F_S282T); 0.0572 µM in data set [3] (GT1A, GT1a H77_C316N); 1.4 µM in data set [3] (GT1A, GT1a H77_S282T); 0.111 µM in data set [3] (GT1B, GT1b Con-1_L159F); 0.95 µM in data set [3] (GT1B, GT1b Con-1_S282T). Besides, the EC50 was 0.0792 µM in data set [3] (GT2B, GT2b 2_L159F); 0.033 to 0.068 µM with HCV GT1b replicon (Hepatitis C virus, GT1B, read-out: EC50 range, range over all assays); 0.048 ± 0.01 µM with HCV GT1b replicon (Hepatitis C virus, GT1B, read-out: mean EC50, mean (± SD) of all assays); 0.0523 µM and 0.0465 µM and 0.0675 µM and 0.0327 µM and 0.0483 µM and 0.0404 µM and 0.0476 µM and 0.0481 µM in the data set on HCV GT1b replicon (setting [9]); 0.0327 to 0.0675 µM in the data set with HCV GT1b replicon (read-out: EC50 range, range over all assays); 0.0479 µM with HCV GT1b replicon (read-out: mean EC50, mean (± SD) of all assays). The “fold range in EC50 values across genotypes” value in data set [1] (laboratory strains) stood at 5.6 fold. Also, in [2] (clinical isolates), the “fold range in EC50 values” is listed as 5.5 fold. In data set [2] (clinical isolates), the “fold range in EC95 values” stood at 5.2 fold. Also, the “shift in EC50 versus reference strain lacking S282T” value in [3] (strains with S282T) worked out at 15 fold. In addition, the “shift in EC95 versus reference strain lacking S282T” value in data set [3] (strains with S282T) amounted to 19 fold. Moreover, in the data set on Huh-luc/neo-ET cells, the “toxicity to the replicon cells, none up to highest concentration tested” value is above 1 µM. In the data set on Huh-luc/neo-ET cells (individual assays), the TC50 is above 1 µM. Further, in the data set on HCV GT1b replicon (mean (± SD) of all assays), the “mean EC95” value was 0.27 ± 0.07 µM and 0.27 µM.
What is called IC50 is the concentration that inhibits the measured activity by half. `C[C@H](CCC(=O)O)[C@H]1CC[C@H]2[C@@H]3CC[C@@H]4C[C@H](O)CC[C@]4(C)[C@H]3CC[C@]12C` [lithocholic acid, reference compound] displayed an IC50 against human DNA polymerase β of 2.91 µM.
In turn, `Cc1ccc(CCCO)c(NCc2ccc3nc(NCCCN4CCOCC4)n(Cc4nc(C)ccc4O)c3c2)c1` [TMC-353121] showed a TC50 in the data set on HEp2 cells above 0.10 µM. The same compound displayed an EC50 with RSV of 0.003 µM.
Take `O=C(N[C@H](CO)[C@H](O)c1ccc([N+](=O)[O-])cc1)C(Cl)Cl` [Chloramphenicol]: the “Cytotoxicity TC50” value in the data set on K562 cells [4] (human, 3 days) is 50.9 µM; in the data set on PC3 cells (human, 5 days) it was above 100 µM. For the same compound, the IC50 in the data set on K562 cells [5] (Homo sapiens, K562, 2 h, read-out: MF (Gal) IC50, mitochondrial function) is above 100 µM; with K562 cells [5] (Homo sapiens, K562, glucose-free galactose medium, 2 h, measure of necrosis, read-out: MI (Gal) IC50, cell membrane integrity), above 100 µM; in [6] (Homo sapiens, PC-3, 120 h), above 100 µM; in data set [7] (Homo sapiens, PC-3, 120 h) it was 95.3 µM.
For `O=c1ccn([C@@H]2O[C@H](COP(=O)(O)OP(=O)(O)OP(=O)(O)O)[C@@H](O)[C@H]2O)c(=O)[nH]1` [UTP], the kpol in data set [8] is 17 ± 1 s⁻¹.
`Nc1nc2c(ncn2[C@@H]2O[C@H](COP(=O)(O)OP(=O)(O)OP(=O)(O)O)[C@@H](O)[C@H]2O)c(=O)[nH]1` [GTP]: the kpol in data set [8] is 21 ± 1 s⁻¹.
On to `Nc1ccn([C@H]2CC[C@@H](CO)O2)c(=O)n1` [ddC], for which the “Cytotoxicity TC50” value with K562 cells [4] and in the data set on PC3 cells was above 20 µM in each case. For the same compound, the concentration for half-maximal inhibition (IC50) in the data set on K562 cells [5] (K562, glucose-free galactose medium, 2 h, inhibition of cellular ATP levels, read-out: MF (Gal) IC50, mitochondrial function) was above 20 µM; in the data set with K562 cells [5] (K562, glucose-free galactose medium, 2 h, measure of necrosis, read-out: MI (Gal) IC50, cell membrane integrity) it was above 20 µM; in data set [6], above 20 µM; in data set [7], 1.1 µM.
On human DNA polymerase γ, `Nc1nc2c(ncn2[C@@H]2O[C@H](COP(=O)(O)OP(=O)(O)OP(=O)(O)O)[C@@H](O)[C@H]2F)c(=O)[nH]1` [2’-fluoro-2’-dGTP, reference compound] registered an IC50 of 10.4 µM.
